Data reported in ChEMBL document CHEMBL5390281.
Calls of active or inactive are those of the source. No cut-off for these calls is given here.

Legend:
Assay type in all cases: functional, organism-based
Mus musculus [1] = experiment: Antinociceptive activity in Swiss mouse assessed as reduction in pain like behavior of mouse in second phase at 5 mg/kg, ip pretreated for 40 min followed by formalin challenge and measured after 30 min; conditions: time 70.0 min
Mus musculus [2] = experiment: Antinociceptive activity in Swiss mouse assessed as reduction in pain like behavior of mouse in first phase at 5 mg/kg, ip pretreated for 40 min followed by formalin challenge and measured after 30 min; conditions: time 70.0 min
Mus musculus [3] = experiment: Antinociceptive activity against noxious cold stimulated-persistent inflammation model of Swiss mouse assessed as reduction in pain like behavior at 5 mg/kg, ip pretreated with compound for 40 min followed by noxious cold stimulation and measured after 3 days in the presence of naloxone by cold plate test; conditions: time 4360.0 min
Mus musculus [4] = experiment: Antinociceptive activity against thermal stimulated-induced persistent inflammation model of Swiss mouse assessed as increased tail flick latency at 5 mg/kg, ip pretreated with compound for 40 min followed thermal stimulation and measured after 3 days in the presence of naloxone by tail flick test; conditions: time 4360.0 min
Mus musculus [5] = experiment: Antinociceptive activity against noxious cold stimulated-induced persistent inflammation model of Swiss mouse assessed as reduction in pain like behavior at 5 mg/kg, ip pretreated with compound for 40 min followed by noxious cold stimulation and measured after 2 hrs by cold plate test; conditions: time 160.0 min
Mus musculus [6] = experiment: Antinociceptive activity against thermal stimulated-induced persistent inflammation model of Swiss mouse assessed as increased tail flick latency at 5 mg/kg, ip pretreated with compound for 40 mins followed by thermal induction and measured after 2 hrs by tail flick test; conditions: time 160.0 min
Mus musculus [7] = experiment: Antinociceptive activity against CFA-induced persistent inflammation model of Swiss mouse assessed as prevention in CFA-induced allodynia at 2 mg/kg, ip incubated for 40 mins by von frey test
Mus musculus [8] = experiment: Antiinflammatory activity against CFA-induced persistent inflammation model of Swiss mouse assessed as prevention in paw edema formation at 2 mg/kg, ip incubated for 40 mins by plethysmometer analysis

SMILES | Activity (Mus musculus [1]) | Activity (Mus musculus [2]) | Activity (Mus musculus [3]) | Activity (Mus musculus [4]) | Activity (Mus musculus [5]) | Activity (Mus musculus [6]) | Activity (Mus musculus [7]) | Activity (Mus musculus [8])
COc1ccc2c(c1)c(CC(=O)O)c(C)n2C(=O)c1ccc(Cl)cc1 | Active | inactive |  |  |  |  |  | 
CN1CC[C@]23c4c5ccc(O)c4O[C@H]2[C@@H](O)C=C[C@H]3[C@H]1C5 | Active | Active | inactive | inactive | Active | Active |  | 
C[C@@H]1C[C@H]2[C@@H]3CCC4=CC(=O)C=C[C@]4(C)[C@@]3(F)[C@@H](O)C[C@]2(C)[C@@]1(O)C(=O)CO |  |  |  |  |  |  | Active | Active
